# Measurements taken from patent US4011221A, “S-Inosylcysteine and a process for producing the same” (Funai Pharmaceutical Industries, Ltd., priority 1974, dated 1977).
# Assays:
# chick embryo heart cells [1] = assay: Effect on proliferation of chick embryo heart cells (Experiments 1 and 2); type: cell-based; conditions: for Cell number + S.E. / activity at 50 µg/mL: Experiment 1, 50 μg/ml; for Cell number + S.E.: 3 days incubation; for activity at 50 µg/mL / activity at 20 µg/mL: Gallus gallus, control = 100.0; for activity at 50 µg/mL: 72 h, read-out: Growth rate %; for Cell number ± S.E. / activity at 20 µg/mL: Experiment 2, 20 μg/ml; for Cell number ± S.E.: 1 day with compound after 3 days of incubation; for activity at 20 µg/mL: 24 h, read-out: Growth rate (%); for cell-proliferating activity (in words): summary statement, Tables I to V
# Method: A. Effect of S-inosylcysteine on proliferation of chick embryo heart cells.
# (§1) Method: The hearts excised from 13-day-old chick embryos were cut into pieces 1 to 2 mm in diameter under sterile conditions. After washing with calcium and magnesium-free phosphate buffered saline (PBS), the pieces of hearts were treated with a solution of 0.1% trypsin in PBS freed from calcium and magnesium ions, and the supernatant fraction was discarded. The residue was treated with a solution of 0.1% trypsin in PBS freed from calcium and magnesium ions, and the supernatant fractions containing isolated cells were collected. The procedure was repeated 3 times. The supernatant fractions were combined and diluted with cold culture medium containing 10% fetal calf serum, sodium penicillin G (100 units per ml) and sulfate streptomycin (1 μg per ml), and centrifuged at 150 xG. The resulting pellet was washed twice with the culture medium and diluted cautiously with the same culture medium to give a suspension which contains 200,000 cells per ml. One ml of the suspension was poured into each of 28 culture tubes which were equally divided into 7 groups. The cells were cultured at 37° C in an incubator. After 1 day of incubation the culture medium of the tubes was removed and 1 ml of each culture medium containing compound shown in Table I was added thereto. After additional 3 days of incubation the culture medium was removed and the cells were then treated with 1 ml of 0.1 M citric acid containing 0.1% crystal violet. The number of cells was counted with a hemocytometer in quadruplicate after vigorous shaking.
# (§2) Method: The culture procedure for chick embryo heart cells was employed as described in Experiment 1. After 3 days of incubation, the culture medium was removed and 1 ml of each culture medium containing compounds shown in Table II was added thereto. After an additional 1 day of incubation the number of cells was counted.
# chick embryo heart cells [2] = assay: Effect on proliferation of chick embryo heart cells in the presence of a growth inhibitor, KCN (Experiments 3 and 4); type: cell-based; conditions: for activity at 50 µg/mL / activity at 20 µg/mL: Gallus gallus; for activity at 20 µg/mL: 24 h
# Method: as §1, with “After” for “Method: The hearts excised from 13-day-old chick embryos were cut into pieces 1 to 2 mm in diameter under sterile conditions. After”, “The resulting pellet was washed twice with the culture medium and diluted cautiously with the same culture medium to give a suspension which contains 200,000 cells per ml.” left out, “shaking. […] After 3 days of incubation, the culture medium was removed and 1 ml of each culture medium containing compounds shown in Table II was added thereto. After an additional 1 day of incubation the number of cells was counted. […] Method: The culture procedure for chick embryo heart cells was employed as described in Experiment 1. After one day of incubation, the culture medium was removed and 1 ml of each culture medium containing KCN (1.7 μg per ml) and compounds shown in Table III were added thereto.” for “shaking.”
# chick embryo heart cells [3] = assay: Effect on proliferation of chick embryo heart cells in the presence of 6-mercaptopurine (Experiment 5); type: cell-based; conditions: Experiment 5, 20 μg/ml, 6-mercaptopurine 5 μg per ml; for activity at 20 µg/mL: Gallus gallus, 24 h
# Method: as §1, §2
# Method: Same as in Experiment 2 except that 6-mercaptopurine (5 μg per
# ml) was added to each culture
# pylorus ligation ulcer = assay: Effect on pylorus ligation ulcer in rats (Experiments 6 and 7); type: in vivo, Male Wister rats; conditions: for anti-ulcer activity (in words): summary statement, Tables VI to VIII
# Method: a. Effect of S-inosylcysteine on pylorus ligation ulcer.
# (§3) Method: Male Wister rats (Keari Gifu-Lab.), aged 7 weeks were used. After fasting for 48 hours, rats weighing 210 to 230 g were divided into 6 groups of 10 rats. The pylorus of stomach was ligated under light anesthesia with pentobarbital sodium (25 mg per kg, i.p.). Immediately after the ligation, a psysiological saline was orally administered to one group and a solution of each tested compound (50 mg per kg) was orally administered to the remaining 5 groups. After these rats were kept without food and water for 10 hours from the ligation, the stomach was removed under anesthesia with pentobarbital sodium (30 mg per kg, i.p.). The gastric contents were aspirated and the stomach was fixed by means of the injection of 10 ml of a 2% formalin solution into the lumen. The stomach was opened along its greater curvature. The severity of the lesion of the rumen, that is, the degree of ulcer was expressed as ulcer index according to the method of Yokotani (Folia pharmacol. Japon. 56, 1373, (1960). The results are shown in Table VI.
# *Inhibition rate was calculated as follows: […]
# Method: The same method as described in Experiment 6 was employed. The
# effect of S-inosyl-L-cysteine
# on pylorus ligation ulcer was examined with intramuscular administration.
# gastric secretion = assay: Effect on gastric secretion in pylorus-ligated rats; type: in vivo, Male Wister rats; conditions: 50 mg/kg, p.o., 5 hours from ligation
# Method: as §3
# b. Effect of S-inosylcysteine on gastric secretion. Method: The rats were ligated in the same manner as in Experiment 6, and divided into 2 groups of 10 rats. Immediately after the ligation, a physiological saline or a solution of S-inosyl-L-cysteine was orally administered. After the rats were kept without food and water for 5 hours from the ligation, the esophagus was ligated and the stomach was removed under anesthesia with pentobarbital sodium (30 mg per kg. i.p.). The gastric contents were collected and centrifuged at 2,000 rpm for 10 minutes. The volume of supernatant was measured and its pH was determined with a pH meter (Hitach-Horiba Type M-5). Free-HCl, total-HCl and total-acidity in the supernatant were determined by the titration with 1/50 N NaOH using Topfer's solution and phenolphtalein solution as an indicator.
# [4] = Experiment 3, 50 μg/ml, KCN 1.7 μg per ml
# [5] = its control = 100.0, read-out: Growth Rate (%)
# [6] = simultaneous with Experiment 2, read-out: Growth rate (%) with respect to control of Table II
# [7] = Experiment 4, 20 μg/ml, KCN 1.7 μg per ml
# [8] = Experiment 4, 20 μg/ml, KCN 1.7 μg per ml, KCN control = 100.0, read-out: Growth rate (%)
# [9] = Experiment 4, 20 μg/ml, KCN 1.7 μg per ml, simultaneous with Experiment 2, read-out: Growth rate (%) with respect to control of Table II
# [10] = Experiment 6, 50 mg/kg, p.o., 10 hours from ligation
# [11] = Experiment 3, 50 μg/ml, KCN 1.7 μg per ml, KCN control = 100.0, read-out: Growth Rate %
# [12] = Experiment 3, 50 μg/ml, KCN 1.7 μg per ml, simultaneous with Experiment 1, read-out: Growth rate (%) with respect to control of Table I
SMILES,Cell number + S.E. (chick embryo heart cells [1]),activity at 50 µg/mL (chick embryo heart cells [1]) [%],Cell number ± S.E. (chick embryo heart cells [2]; [4]),Cell number ± S.E. (chick embryo heart cells [3]),activity at 20 µg/mL (chick embryo heart cells [3]; [5]) [%],activity at 20 µg/mL (chick embryo heart cells [3]; [6]) [%],Cell number ± S.E. (chick embryo heart cells [1]),activity at 20 µg/mL (chick embryo heart cells [1]) [%],Cell number ± S.E. (chick embryo heart cells [2]; [7]),activity at 20 µg/mL (chick embryo heart cells [2]; [8]) [%],activity at 20 µg/mL (chick embryo heart cells [2]; [9]) [%],"Inhibition rate (%) of ulcer (pylorus ligation ulcer; Experiment 6, 50 mg/kg, p.o.) [%]",Mean ulcer index ± S.E. (pylorus ligation ulcer; [10]),activity at 50 µg/mL (chick embryo heart cells [2]; [11]) [%],activity at 50 µg/mL (chick embryo heart cells [2]; [12]) [%],also measured
Nc1ncnc2c1ncn2[C@@H]1O[C@H](CO)[C@@H](O)[C@H]1O [adenosine],44.1 ± 5.6 ×10^4 cells,86.6,33.3 ± 1.9 ×10^4 cells,,,,,,,,,,,,,activity at 50 µg/mL (chick embryo heart cells [2]; read-out: Growth Rate %): 104%; activity at 50 µg/mL (chick embryo heart cells [2]; read-out: Growth rate (%) with respect to control of Table I): 65.4%
Nc1ncnc2c1ncn2[C@@H]1O[C@H](CSCC[C@H](N)C(=O)O)[C@@H](O)[C@H]1O [S-adenosyl-L-homocysteine],,,,75.7 ± 1.6 ×10^4 cells,111,92.8,71.5 ± 3.4 ×10^4 cells,87.6,65.2 ± 1.8 ×10^4 cells,99.1,79.9,19,11.3 ± 0.7,,,
OC[C@H]1O[C@@H](n2cnc3c(O)ncnc32)[C@H](O)[C@@H]1O [inosine],54.1 ± 2.0 ×10^4 cells,106,37.2 ± 4.4 ×10^4 cells,,,,,,,,,,,116,73.1,
N[C@@H](CCSC[C@H]1O[C@@H](n2cnc3c(=O)[nH]cnc32)[C@H](O)[C@@H]1O)C(=O)O [S-inosyl-L-homocysteine],,,,65.3 ± 3.7 ×10^4 cells,95.6,80,78.2 ± 7.5 ×10^4 cells,95.8,73.5 ± 1.7 ×10^4 cells,112,90.1,12,12.3 ± 1.1,,,
Nc1ncnc2c1ncn2[C@@H]1O[C@H](CSC[C@H](N)C(=O)O)[C@@H](O)[C@H]1O [S-adenosyl-L-cysteine],,,,70.7 ± 1.2 ×10^4 cells,104,86.6,74.8 ± 4.7 ×10^4 cells,91.7,64.2 ± 3.0 ×10^4 cells,97.6,78.7,13,12.1 ± 1.2,,,
"N[C@@H](CSC[C@H]1O[C@@H](n2cnc3c(=O)[nH]cnc32)[C@H](O)[C@@H]1O)C(=O)O [S-inosyl-L-cysteine, 5'-S-(2-amino-2-carboxyethyl)-5'-thioinosine]",65.4 ± 1.6 ×10^4 cells,128,50.9 ± 1.5 ×10^4 cells,85.8 ± 2.9 ×10^4 cells,126,105,97.8 ± 3.8 ×10^4 cells,120,85.6 ± 0.4 ×10^4 cells,130,105,42,8.1 ± 1.1,159,100,"Free-HCl, inhibition rate % (gastric secretion): 36%; Total-HCl, inhibition rate (%) (gastric secretion): 23%; Total-acidity (gastric secretion): 83.2 mEq/l; Total-acidity, inhibition rate (%) (gastric secretion): 22%; Volume, inhibition rate (%) (gastric secretion): 38%; pH (gastric contents supernatant) (gastric secretion): 1.50 ± 0.06; Free-HCl (gastric secretion; ± S.E.): 42.8 ± 6.0 mEq/l; Total-HCl (gastric secretion; ± S.E.): 73.8 ± 6.4 mEq/l; Volume (gastric contents supernatant) (gastric secretion; ± S.E.): 5.3 ± 0.5 mL; cell-proliferating activity (in words) (chick embryo heart cells [1]; listed as S-inosycysteine): superior to those of known related compounds (2) to (10); cell-proliferating activity (in words) (chick embryo heart cells [1]; listed as S-inosylcysteine): remarkable; cell-proliferating activity (in words) (chick embryo heart cells [1]; listed as S-inosylsteine): excellent; Inhibition rate (%) of ulcer (pylorus ligation ulcer; Experiment 7, 50 mg/kg, i.m.): 59%; Mean ulcer index ± S.E. (pylorus ligation ulcer; Experiment 7, 50 mg/kg, i.m.): 5.1 ± 1.6; anti-ulcer activity (in words) (pylorus ligation ulcer; listed as S-inosyl cysteine): superior to those of known related compounds (7) to (10); anti-ulcer activity (in words) (pylorus ligation ulcer; listed as S-inosylsteine): excellent"
N[C@@H](CS)C(=O)O [L-cysteine],50.5 ± 1.3 ×10^4 cells,99.2,41.9 ± 6.3 ×10^4 cells,,,,,,,,,,,131,82.3,
Nc1nc2c(ncn2[C@@H]2O[C@H](CSCC[C@H](N)C(=O)O)[C@@H](O)[C@H]2O)c(=O)[nH]1 [S-guanosyl-L-homocysteine],,,,72.3 ± 5.5 ×10^4 cells,106,88.6,69.2 ± 1.8 ×10^4 cells,84.8,66.3 ± 1.4 ×10^4 cells,101,81.3,-8,15.0 ± 1.8,,,
